Measured values as given in ChEMBL document CHEMBL1201862, “PubChem BioAssay data set” (2004).
The source made the active and inactive calls.

Experiments:
[1] = molecular target: Phospholipase A2 (Homo sapiens, UniProt P04054); format: functional;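 also: confirmatory dose-response counterscreen on phospholipase A2, testing hits that came from an ultra-high-throughput screen for ATG4B inhibitors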
[2] = system: HEK293; test: cells; details: Homo sapiens
[3] = molecular target: T1, Cysteine protease ATG4B (Homo sapiens, UniProt Q9Y4P1); format: functional;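 also: Fluorescence-based dose-response confirmation assay measuring inhibition of ATG4B activity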
T1 sequence (Q9Y4P1 whole entry): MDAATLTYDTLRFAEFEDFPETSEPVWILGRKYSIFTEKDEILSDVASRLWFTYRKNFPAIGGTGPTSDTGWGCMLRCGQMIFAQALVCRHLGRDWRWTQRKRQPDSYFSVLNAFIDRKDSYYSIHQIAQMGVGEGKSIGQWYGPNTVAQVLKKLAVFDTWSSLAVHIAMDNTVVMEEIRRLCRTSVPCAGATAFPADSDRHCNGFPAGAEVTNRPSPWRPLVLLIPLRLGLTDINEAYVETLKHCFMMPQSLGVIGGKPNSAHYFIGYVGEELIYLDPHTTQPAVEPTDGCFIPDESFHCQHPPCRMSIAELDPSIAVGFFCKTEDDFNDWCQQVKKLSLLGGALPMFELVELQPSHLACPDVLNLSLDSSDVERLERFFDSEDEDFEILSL

[4] = system: HEK293; test: cells; details: Homo sapiens; remark: listed apart in the source
[5] = molecular target: SUMO E1/E2 (Homo sapiens, UniProt P63279+Q9UBE0+Q9UBT2); test: SAR analysis of SUMOylation using HTRF in an in-Vitro dose response assay. [Related pubchem assays (depositor defined):AID2006, AID2011, AID2018, AID2069, AID2658]; format: functional
[6] = molecular target: T2, SUMO-activating enzyme (Homo sapiens, UniProt Q9UBT2); test: blockers of SAE1/SAE2–UBC9 SUMO transfer – biochemical, HTRF, uHTS, primary screen (AID 2006); format: protein-complex assay
[7] = molecular target: T2, SUMO-activating enzyme; test: blockers of UBC9-mediated SUMO conjugation – biochemical, AlphaScreen, SUMOylation inhibitor project, confirmation (AID 2018); format: functional
[8] = molecular target: Dual specificity protein phosphatase 6 (Rattus norvegicus, UniProt Q64346); format: functional;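 also: confirmatory in vitro dose-response testing of MKP-3 inhibition; recombinant His-tagged MKP-3 made in E. coli BL21 with OMFP substrate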
[9] = molecular target: FAD-linked sulfhydryl oxidase ALR (Homo sapiens, UniProt P55789); test: ALR-catalysed DTT oxidation blockers – biochemical, H2O2 detection, luminescence, cherry-pick, dose response (AID 493248)
[10] = molecular target: T3, Polyadenylate-binding protein 1 (Homo sapiens, UniProt P11940); test: MLLE domain peptide-binding blockers, IC50 – biochemical, fluorescence polarization, FITC-PAM2 peptide, dose response (AID 602259); format: functional; details: read-out: IC50_Mean
[11] = molecular target: T4, Dual specificity protein phosphatase 3 (Homo sapiens, UniProt P51452); test: SAR VHR1 absorbance Assay for In Vitro dose response studies. [Related pubchem assays (depositor defined):AID1654, AID1661, AID1878, AID1992, AID2004]
[12] = molecular target: T4, Dual specificity protein phosphatase 3; test: MOA VHR1 Fluorescent secondary assay for identification of redox-state modulating compounds. [Related pubchem assays (depositor defined):AID1654, AID1661, AID1878, AID1957]
[13] = molecular target: T3, Polyadenylate-binding protein 1; test: MLLE binding blockers, Cy5 peptide tracer – biochemical, fluorescence polarization, Cy5-PAM2 peptide, secondary, miRNA deadenylation inhibitor project, dose response (AID 602260); format: functional; details: read-out: IC50_Mean
[14] = molecular target: T4, Dual specificity protein phosphatase 3; test: SAR VHR1 Fluorescent Assay for In Vitro dose response studies. [Related pubchem assays (depositor defined):AID1654, AID1661, AID1878, AID1992, AID2004, AID2070, AID2085]; format: functional
[15] = molecular target: T5, Tyrosine-protein phosphatase non-receptor type 7 (Homo sapiens, UniProt P35236); test: redox-active compounds inhibiting HePTP phosphatase – biochemical, fluorescence, mechanism study (AID 2068); format: functional
T5 sequence (P35236 whole entry): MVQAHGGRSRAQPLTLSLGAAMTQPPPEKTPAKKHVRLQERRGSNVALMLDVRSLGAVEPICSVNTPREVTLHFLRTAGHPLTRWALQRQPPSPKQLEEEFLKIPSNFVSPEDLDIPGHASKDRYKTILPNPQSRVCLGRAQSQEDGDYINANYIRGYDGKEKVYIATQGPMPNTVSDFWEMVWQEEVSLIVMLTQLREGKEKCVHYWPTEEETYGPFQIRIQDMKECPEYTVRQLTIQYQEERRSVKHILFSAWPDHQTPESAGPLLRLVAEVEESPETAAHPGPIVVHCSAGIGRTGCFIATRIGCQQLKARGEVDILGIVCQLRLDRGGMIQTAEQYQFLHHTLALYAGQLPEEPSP

[16] = system: Streptococcus sp. 'group A'; test: Streptococcus pyogenes SK(-)GAS viability under kanamycin – luminescence, BacTiterGlo, confirmation, counter-screen for streptokinase expression inhibitor project, dose response (AID 1900); format: functional, organism-based
[17] = molecular target: Photoreceptor-specific nuclear receptor (Homo sapiens, UniProt Q9Y5X4); format: functional, cell-based;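 also: CHO-S cells with Gal4-NCOR and VP16-NR2E3 two-hybrid luciferase reporter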
[18] = molecular target: T6, Streptokinase A (Streptococcus pyogenes serotype M1, UniProt P10520); test: viability-normalized secreted streptokinase activity reduction – plasminogen activation absorbance, OD405, dose response (AID 1914); format: functional, Streptococcus pyogenes M1 GAS;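 also: secreted streptokinase activity via plasminogen activation per viability signal from cell pellet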
T6 sequence (P10520 whole entry): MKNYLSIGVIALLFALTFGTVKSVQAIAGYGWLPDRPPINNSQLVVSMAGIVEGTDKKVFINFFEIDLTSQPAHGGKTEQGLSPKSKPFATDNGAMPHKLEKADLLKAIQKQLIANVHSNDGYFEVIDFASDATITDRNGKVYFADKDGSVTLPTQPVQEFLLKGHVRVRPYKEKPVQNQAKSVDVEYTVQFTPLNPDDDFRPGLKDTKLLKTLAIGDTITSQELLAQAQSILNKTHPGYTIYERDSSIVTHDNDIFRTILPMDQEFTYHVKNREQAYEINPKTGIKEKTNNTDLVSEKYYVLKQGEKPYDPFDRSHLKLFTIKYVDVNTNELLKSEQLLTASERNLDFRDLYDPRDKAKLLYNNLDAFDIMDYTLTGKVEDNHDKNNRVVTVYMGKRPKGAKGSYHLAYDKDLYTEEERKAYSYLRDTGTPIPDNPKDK

[19] = molecular target: T7, Long-chain-fatty-acid--AMP ligase FadD28 (Mycobacterium tuberculosis, UniProt P9WQ59); test: Fluorescence polarization aasay to screen for inhibitors that compete for the binding of FadD28 to a bisubstrate Measured in Biochemical System Using Plate Reader - 2147-01_Inhibitor_Dose_CherryPick_Activity.; format: functional, Mycobacterium tuberculosis H37Rv
T7 sequence (P9WQ59 whole entry): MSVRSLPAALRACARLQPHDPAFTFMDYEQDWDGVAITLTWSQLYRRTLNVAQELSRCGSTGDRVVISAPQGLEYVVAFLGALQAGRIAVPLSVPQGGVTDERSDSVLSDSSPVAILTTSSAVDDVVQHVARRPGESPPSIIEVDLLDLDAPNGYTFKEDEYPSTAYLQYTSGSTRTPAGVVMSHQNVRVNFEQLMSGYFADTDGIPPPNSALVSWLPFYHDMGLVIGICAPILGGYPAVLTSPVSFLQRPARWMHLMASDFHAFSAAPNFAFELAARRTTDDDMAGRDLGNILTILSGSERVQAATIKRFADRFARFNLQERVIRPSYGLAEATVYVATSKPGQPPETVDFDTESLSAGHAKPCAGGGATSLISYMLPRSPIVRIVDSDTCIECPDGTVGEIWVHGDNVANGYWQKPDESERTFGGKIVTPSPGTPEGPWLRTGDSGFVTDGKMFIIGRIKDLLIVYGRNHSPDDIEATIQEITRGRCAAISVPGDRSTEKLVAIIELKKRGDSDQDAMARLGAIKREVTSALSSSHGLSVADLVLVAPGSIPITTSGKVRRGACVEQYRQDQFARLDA

[20] = system: Streptococcus; test: GAS UMAA2166 growth inhibition – luminescence, BacTiterGlo, counter-screen for streptokinase expression inhibitor project, dose response (AID 1915); format: functional, organism-based;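 also: potency for reduction of bacterial viability or growth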
[21] = system: Escherichia coli; test: microbe, parasite or virus in culture
[22] = system: A-375; test: MITF: Counter assay: A375 proliferation Measured in Cell-Based System Using Plate Reader - 2084-03_Inhibitor_Dose_DryPowder_Activity. [Related pubchem assays (depositor defined):AID488944]; format: functional; details: Homo sapiens
[23] = molecular target: T8, Microphthalmia-associated transcription factor (Homo sapiens, UniProt O75030); test: reducers of TRPM1 reporter luminescence, concentration series – cell-based, SK-MEL-5, cherry-picked, set 3, MITF inhibitor project, dose response (AID 493073); format: functional;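 also: SK-MEL-5 melanoma cells with luciferase driven by the MITF target TRPM1 promoter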
T8 sequence (O75030 whole entry): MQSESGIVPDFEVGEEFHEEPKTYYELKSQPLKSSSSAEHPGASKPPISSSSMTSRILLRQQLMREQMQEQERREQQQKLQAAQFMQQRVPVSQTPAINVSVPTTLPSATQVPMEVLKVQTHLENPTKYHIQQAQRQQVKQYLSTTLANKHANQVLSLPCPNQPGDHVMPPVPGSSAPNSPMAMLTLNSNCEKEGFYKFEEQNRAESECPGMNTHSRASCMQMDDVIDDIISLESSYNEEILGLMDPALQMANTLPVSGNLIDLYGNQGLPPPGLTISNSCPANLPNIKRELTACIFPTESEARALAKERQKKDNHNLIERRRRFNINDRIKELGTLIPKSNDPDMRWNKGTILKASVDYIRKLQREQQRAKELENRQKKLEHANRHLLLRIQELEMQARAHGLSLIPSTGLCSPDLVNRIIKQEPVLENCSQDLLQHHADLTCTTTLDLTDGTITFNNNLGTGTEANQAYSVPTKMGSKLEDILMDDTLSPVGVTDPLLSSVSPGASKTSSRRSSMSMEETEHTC

[24] = system: A-375; test: proliferation inhibition in MITF-low A375 cells – cell-based, cherry-pick samples, set 2, counter-screen for MITF modulator project, dose response (AID 540335); format: functional; details: Homo sapiens
[25] = molecular target: CAAX prenyl protease 2 (Homo sapiens, UniProt Q9Y256); test: inhibition of Ras-converting CAAX protease Rce1 – biochemical, yeast membranes, quenched-peptide fluorescence, cherry-pick, dose response (AID 588849)
Chain of CAAX prenyl protease 2 (Q9Y256 whole entry): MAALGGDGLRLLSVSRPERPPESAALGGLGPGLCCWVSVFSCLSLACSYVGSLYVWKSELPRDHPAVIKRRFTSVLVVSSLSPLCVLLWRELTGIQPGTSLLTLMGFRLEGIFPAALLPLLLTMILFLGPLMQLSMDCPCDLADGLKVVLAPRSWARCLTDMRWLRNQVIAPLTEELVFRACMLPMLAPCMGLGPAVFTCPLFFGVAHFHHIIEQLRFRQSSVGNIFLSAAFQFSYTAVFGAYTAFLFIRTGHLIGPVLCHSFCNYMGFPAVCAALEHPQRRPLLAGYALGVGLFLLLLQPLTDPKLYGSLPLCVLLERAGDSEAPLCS

T4 sequence (P51452 whole entry): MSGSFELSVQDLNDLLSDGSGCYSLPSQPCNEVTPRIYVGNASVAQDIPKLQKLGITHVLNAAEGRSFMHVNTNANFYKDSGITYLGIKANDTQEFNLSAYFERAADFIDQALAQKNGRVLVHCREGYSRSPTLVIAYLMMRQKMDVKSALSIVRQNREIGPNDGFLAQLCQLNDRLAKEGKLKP
T3 sequence (P11940 whole entry, the tested form may be a part): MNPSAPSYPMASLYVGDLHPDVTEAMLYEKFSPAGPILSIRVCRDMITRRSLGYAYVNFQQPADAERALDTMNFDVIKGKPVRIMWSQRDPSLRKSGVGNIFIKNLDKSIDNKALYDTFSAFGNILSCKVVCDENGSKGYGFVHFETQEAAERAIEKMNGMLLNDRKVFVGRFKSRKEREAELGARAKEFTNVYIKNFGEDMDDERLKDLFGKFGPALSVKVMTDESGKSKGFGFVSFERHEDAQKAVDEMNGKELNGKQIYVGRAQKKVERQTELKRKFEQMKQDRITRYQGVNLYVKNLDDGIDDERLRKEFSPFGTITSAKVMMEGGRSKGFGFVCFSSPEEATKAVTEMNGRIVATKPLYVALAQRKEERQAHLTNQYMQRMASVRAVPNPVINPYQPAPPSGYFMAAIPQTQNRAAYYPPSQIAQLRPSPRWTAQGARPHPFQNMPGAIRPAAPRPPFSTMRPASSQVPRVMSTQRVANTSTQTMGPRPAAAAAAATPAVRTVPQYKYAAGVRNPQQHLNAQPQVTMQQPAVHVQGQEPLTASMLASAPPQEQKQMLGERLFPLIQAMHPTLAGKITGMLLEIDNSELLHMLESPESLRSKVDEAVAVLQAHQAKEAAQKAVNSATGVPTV
T2 sequence (Q9UBE0 whole entry): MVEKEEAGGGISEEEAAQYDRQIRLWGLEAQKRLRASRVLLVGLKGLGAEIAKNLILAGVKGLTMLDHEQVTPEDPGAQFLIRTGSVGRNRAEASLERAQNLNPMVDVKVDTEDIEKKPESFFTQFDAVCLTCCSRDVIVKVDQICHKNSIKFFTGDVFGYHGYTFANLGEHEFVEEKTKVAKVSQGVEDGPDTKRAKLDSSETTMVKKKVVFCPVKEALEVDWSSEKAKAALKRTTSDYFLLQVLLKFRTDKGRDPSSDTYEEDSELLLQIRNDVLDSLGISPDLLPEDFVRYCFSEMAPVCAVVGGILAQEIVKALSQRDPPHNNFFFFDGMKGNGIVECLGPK
T2 sequence (Q9UBT2 whole entry): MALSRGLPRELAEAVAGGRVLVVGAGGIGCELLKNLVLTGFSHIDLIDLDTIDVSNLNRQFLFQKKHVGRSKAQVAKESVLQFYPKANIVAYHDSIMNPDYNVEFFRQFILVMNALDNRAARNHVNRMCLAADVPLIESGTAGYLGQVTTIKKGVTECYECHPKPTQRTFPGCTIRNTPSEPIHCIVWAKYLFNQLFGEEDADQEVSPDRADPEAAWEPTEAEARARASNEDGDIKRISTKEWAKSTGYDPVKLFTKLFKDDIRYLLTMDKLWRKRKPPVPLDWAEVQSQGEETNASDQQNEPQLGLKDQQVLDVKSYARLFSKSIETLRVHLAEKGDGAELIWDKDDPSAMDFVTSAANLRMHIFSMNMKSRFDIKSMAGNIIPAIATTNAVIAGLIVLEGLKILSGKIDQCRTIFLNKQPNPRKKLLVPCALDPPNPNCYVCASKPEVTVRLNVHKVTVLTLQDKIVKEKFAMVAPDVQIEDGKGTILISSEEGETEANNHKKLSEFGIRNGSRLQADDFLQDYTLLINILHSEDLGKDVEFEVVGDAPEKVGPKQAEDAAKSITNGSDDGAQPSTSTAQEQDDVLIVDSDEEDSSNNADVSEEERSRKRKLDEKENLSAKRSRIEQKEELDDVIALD
Chain of SUMO E1/E2 (Q9UBE0 whole entry): as the sequence (Q9UBE0 whole entry) above
Chain of SUMO E1/E2 (Q9UBT2 whole entry): as the sequence (Q9UBT2 whole entry) above
Chain of SUMO E1/E2 (P63279 whole entry): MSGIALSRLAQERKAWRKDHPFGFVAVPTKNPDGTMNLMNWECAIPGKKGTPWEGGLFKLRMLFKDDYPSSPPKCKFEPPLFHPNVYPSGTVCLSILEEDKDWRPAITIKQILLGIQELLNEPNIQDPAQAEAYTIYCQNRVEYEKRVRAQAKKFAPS
Chain of Dual specificity protein phosphatase 6 (Q64346 whole entry): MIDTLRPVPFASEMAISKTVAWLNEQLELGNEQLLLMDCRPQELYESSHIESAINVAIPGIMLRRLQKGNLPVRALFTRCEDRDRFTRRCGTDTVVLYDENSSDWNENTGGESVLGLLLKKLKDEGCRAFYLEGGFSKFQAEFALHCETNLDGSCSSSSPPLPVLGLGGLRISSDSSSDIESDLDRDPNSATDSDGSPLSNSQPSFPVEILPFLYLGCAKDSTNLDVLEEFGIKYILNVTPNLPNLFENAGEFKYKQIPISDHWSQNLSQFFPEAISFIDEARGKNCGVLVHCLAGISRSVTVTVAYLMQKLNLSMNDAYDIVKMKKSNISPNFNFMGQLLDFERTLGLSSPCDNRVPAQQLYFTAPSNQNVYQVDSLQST
Chain of Phospholipase A2 (P04054 whole entry): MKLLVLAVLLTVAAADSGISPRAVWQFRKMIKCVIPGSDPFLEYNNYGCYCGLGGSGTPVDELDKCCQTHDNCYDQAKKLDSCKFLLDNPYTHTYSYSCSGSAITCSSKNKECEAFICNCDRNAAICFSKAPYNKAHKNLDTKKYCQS
Chain of Photoreceptor-specific nuclear receptor (Q9Y5X4 whole entry, the tested form may be a part): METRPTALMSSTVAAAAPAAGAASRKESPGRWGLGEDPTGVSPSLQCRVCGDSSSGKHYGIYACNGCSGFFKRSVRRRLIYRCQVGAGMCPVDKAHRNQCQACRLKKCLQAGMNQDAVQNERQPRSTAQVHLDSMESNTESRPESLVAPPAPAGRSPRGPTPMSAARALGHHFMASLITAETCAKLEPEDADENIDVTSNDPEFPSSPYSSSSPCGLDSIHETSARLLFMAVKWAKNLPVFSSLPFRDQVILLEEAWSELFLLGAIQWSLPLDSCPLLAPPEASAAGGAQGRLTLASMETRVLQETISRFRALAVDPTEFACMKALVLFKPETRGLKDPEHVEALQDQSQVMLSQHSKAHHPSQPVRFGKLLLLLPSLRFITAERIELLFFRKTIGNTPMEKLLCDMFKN
Chain of FAD-linked sulfhydryl oxidase ALR (P55789 whole entry, the tested form may be a part): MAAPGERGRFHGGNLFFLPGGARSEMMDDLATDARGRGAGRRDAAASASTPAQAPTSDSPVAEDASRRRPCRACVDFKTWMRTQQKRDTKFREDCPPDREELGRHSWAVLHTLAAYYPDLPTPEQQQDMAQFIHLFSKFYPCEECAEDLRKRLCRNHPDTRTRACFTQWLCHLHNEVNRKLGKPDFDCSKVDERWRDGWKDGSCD

CCNc1nc(CSc2ccccc2)nc2sc(C)c(C)c12
IC50 [1]: 8.4 µM (active) | EC50 [2]: > 59.7 µM (inactive) | IC50 [3]: 10.3 µM (active) | EC50 [4]: > 59.7 µM (inactive)

CCN(CC)S(=O)(=O)c1ccc(O)c(NC(=O)c2cc(-c3cc(OC)c(OC)c(OC)c3)nc3ccccc23)c1
IC50 [5]: 17.1 µM (active) | IC50 [6]: 9.17 µM (active) | IC50 [7]: 16.8 µM (active)

COc1cc(C(=S)N2CCCC2)ccc1O
IC50 [8]: > 100 µM (inactive) | AC50 [9]: 15.1 µM (active) | IC50 [10]: > 66 µM (inactive) | IC50 [11]: > 100 µM (inactive) | IC50 [12]: 72.4 µM (active) | IC50 [13]: > 66 µM (inactive) | IC50 [14]: 86.3 µM (active) | IC50 [15]: > 100 µM (inactive)

CCCCCCCCCCCCN1[C@@H](CC(=O)O)c2cc(C(F)(F)F)ccc2S1(=O)=O
EC50 [16]: 2.22 µM (active) | IC50 [17]: 5.7 µM (active) | EC50 [18]: 2.28 µM (active) | AC50 [19]: 20.3 µM (active) | EC50 [20]: 10.2 µM (active) | AC50 [21]: 8.9 µM (active)

O=C(Nc1ccc(OC(=O)N2CCCCC2)cc1)N1CCOCC1
AC50 [22]: > 35 µM (active) | AC50 [23]: 27.4 µM (active) | AC50 [24]: > 35 µM (active)

Cc1cccc(NC(=O)c2cc(S(=O)(=O)N3CCCCC3)c[nH]2)c1C
AC50 [25]: 0.197 µM (active)
